A value given as a limit tells only on which side of the number the result lay.

For the assay, the target named is T1, Glucocorticoid Receptor (GR) (Homo sapiens, UniProt P04150).
T1 construct: purchased Invitrogen P2893
T1 sequence (P04150 1-777): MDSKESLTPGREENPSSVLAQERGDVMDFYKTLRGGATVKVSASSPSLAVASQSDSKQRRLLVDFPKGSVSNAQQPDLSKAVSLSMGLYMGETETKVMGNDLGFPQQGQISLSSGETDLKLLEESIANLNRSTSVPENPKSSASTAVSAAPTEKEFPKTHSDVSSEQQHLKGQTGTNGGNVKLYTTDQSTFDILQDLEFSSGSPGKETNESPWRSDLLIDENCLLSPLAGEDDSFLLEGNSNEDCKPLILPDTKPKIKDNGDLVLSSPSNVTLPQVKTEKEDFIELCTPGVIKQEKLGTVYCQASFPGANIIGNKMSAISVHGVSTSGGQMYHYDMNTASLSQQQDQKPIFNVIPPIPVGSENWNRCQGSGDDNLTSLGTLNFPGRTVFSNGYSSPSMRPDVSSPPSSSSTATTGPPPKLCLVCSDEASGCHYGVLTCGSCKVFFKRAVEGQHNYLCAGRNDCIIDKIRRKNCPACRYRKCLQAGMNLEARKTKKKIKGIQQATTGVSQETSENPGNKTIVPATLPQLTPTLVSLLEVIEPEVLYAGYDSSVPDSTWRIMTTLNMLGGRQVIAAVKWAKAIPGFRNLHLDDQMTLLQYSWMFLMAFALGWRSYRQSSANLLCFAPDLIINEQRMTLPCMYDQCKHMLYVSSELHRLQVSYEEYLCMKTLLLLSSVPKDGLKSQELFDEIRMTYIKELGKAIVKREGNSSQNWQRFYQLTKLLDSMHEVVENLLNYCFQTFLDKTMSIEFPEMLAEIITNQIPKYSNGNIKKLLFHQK
The assay can be described thus: GR Florescence Polarization Assay (PolarScreen Glucocorticoid Receptor Competitor Assay, Red). Particulars: Fluorescense polarization binding ranges; competition with fluorescent glucocorticoid, incubated overnight at 4° C. The protocol: GR Florescence Polarization Assay Florescence polarization assays were carried out using the PolarScreen™ Glucocorticoid Receptor Competitor Assay, Red from Invitrogen (P2893). The assay buffer was prepared according to the manufacturer's protocol and used to dilute the fluorescent glucocorticoid and GR. Compounds were prepared and serial diluted 1:4 in DMSO. Compound, fluorescent glucocorticoid and GR were added in a final volume of 20 μL and incubated overnight at 4° C. Fluorescent polarization was measured on the Perkinelmer Envision®.
By IC50 is commonly meant the concentration at which inhibition is half-maximal. A low value points to greater potency in that assay. For the compound `O=C1CCCC[C@H]2CC3(CC[C@@]12Cc1ccccc1)OCCO3` (racemic) [Example 37, (4aS,9aS)-4a-benzyloctahydrospiro[benzo[7]annulene-2,2′-[1,3]dioxolan]-5(1H)-one; compound with (4aR,9aR)-4a-benzyloctahydrospiro[benzo[7]annulene-2,2′-[1,3]dioxolan]-5(1H)-one], the IC50 is more than 10000 nM.

In the case of `CCOC[C@@]1(O)CC[C@@]2(Cc3ccccc3)c3ccc(C(=O)Nc4cccnc4C)cc3CCC[C@H]2C1` (racemic) [Example 33, (7aS,9R,11aS)-11a-Benzyl-9-ethoxymethyl-9-hydroxy-6,7,7a,8,9,10,11,11a-octahydro-5H-dibenzo[a,c]cycloheptene-3-carboxylic acid (2-methyl-pyridin-3-yl)-amide; compound with (7aR,9S,11aR)-11a-benzyl-9-ethoxymethyl-9-hydroxy-6,7,7a,8,9,10,11,11a-octahydro-5H-dibenzo[a,c]cycloheptene-3-carboxylic acid (2-methyl-pyridin-3-yl)-amide], the IC50 was less than 100 nM.

In the case of `CC[C@]12CC[C@@](O)(CC3CC3)C[C@H]1CCCc1cc(C(=O)Nc3cccnc3C)ccc12` [Example 50], the concentration for half-maximal inhibition (IC50) was in the range of 100 to 1000 nM.

`CCC[C@]1(O)CC[C@]2(CC)c3ccc(C(=O)Nc4cccnc4C)cc3CCC[C@@H]2C1` (single isomer, unassigned) [Example 44] came in with an IC50 of 100 to 1000 nM.

`CC[C@@]1(O)CC[C@@]2(Cc3ccccc3)c3ccc(C(=O)Nc4cccnc4C)cc3COC[C@H]2C1` [Example 111, (7aS,9R,11aS)-11a-Benzyl-9-ethyl-9-hydroxy-N-(2-methylpyridin-3-yl)-5,7,7a,8,9,10,11,11a-octahydrodibenzo[c,e]oxepine-3-carboxamide] yielded a concentration for half-maximal inhibition (IC50) of less than 100 nM.

Compound `Cc1ncccc1NC(=O)c1ccc2c(c1)CCC[C@@H]1C[C@@](O)(C(F)(F)F)CC[C@@]21Cc1ccccc1` [Example 106, (7aR,9R,11aS)-11a-Benzyl-9-hydroxy-9-trifluoromethyl-6,7,7a,8,9,10,11,11a-octahydro-5H-dibenzo[a,c]cycloheptene-3-carboxylic acid (2-methyl-pyridin-3-yl)-amide] had a concentration for half-maximal inhibition (IC50) of less than 100 nM.

As to `CC[C@@]1(O)CC[C@]2(Cc3ccccc3)c3nn(C)cc3CCC[C@@H]2C1.CC[C@]1(O)CC[C@@]2(Cc3ccccc3)c3nn(C)cc3CCC[C@H]2C1` [Example 41, (6aS,8S,10aS)-10a-benzyl-8-ethyl-2-methyl-2,4,5,6,6a,7,8,9,10,10a-decahydro-1,2-diaza-benzo[e]azulen-8-ol; compound with (6aR,8R,10aR)-10a-benzyl-8-ethyl-2-methyl-2,4,5,6,6a,7,8,9,10,10a-decahydro-1,2-diaza-benzo[e]azulen-8-ol], the IC50 was more than 10000 nM.

`Cc1ncccc1NC(=O)c1ccc2c(c1)CCC[C@H]1C[C@@](O)(COC3COC3)CC[C@@]21Cc1ccccc1` (racemic) [Example 96] returned an IC50 of less than 100 nM.

In turn, `CCC[C@@]1(O)CC[C@@]2(CC)c3ccc(C(=O)Nc4cccnc4C)cc3C=CC[C@H]2C1` (racemic) [Example 128, (7aS,9R,11aR)-11a-Ethyl-9-hydroxy-9-propyl-7a,8,9,10,11,11a-hexahydro-7H-dibenzo[a,c]cycloheptene-3-carboxylic acid (2-methyl-pyridin-3-yl)-amide compound with (7aR,9S,11aS)-11a-ethyl-9-hydroxy-9-propyl-7a,8,9,10,11,11a-hexahydro-7H-dibenzo[a,c]cycloheptene-3-carboxylic acid (2-methyl-pyridin-3-yl)-amide] returned a concentration for half-maximal inhibition (IC50) of less than 100 nM.

`CC[C@@]1(O)CC[C@@]2(Cc3ccccc3)c3ccc(C(=O)Nc4cccnc4C)cc3C(=O)CC[C@H]2C1` (racemic) [Example 23, (7aS,9R,11aS)-11a-Benzyl-9-ethyl-9-hydroxy-5-oxo-6,7,7a,8,9,10,11,11a-octahydro-5H-dibenzo[a,c]cycloheptene-3-carboxylic acid (2-methyl-pyridin-3-yl)-amide; compound with (7aR,9S,11aR)-11a-benzyl-9-ethyl-9-hydroxy-5-oxo-6,7,7a,8,9,10,11,11a-octahydro-5H-dibenzo[a,c]cycloheptene-3-carboxylic acid (2-methyl-pyridin-3-yl)-amide]: the IC50 was less than 100 nM.

`CC[C@@]1(O)CC[C@@]2(Cc3ccccc3)c3ccc(C(=O)Nc4cnccc4C)cc3CCC[C@H]2C1` [Example 71] yielded a half-inhibitory concentration (IC50) of less than 100 nM.

With `Cc1ncccc1NC(=O)c1ccc2c(c1)COC(=O)[C@H]1CC(=O)CC[C@@]21Cc1ccccc1` [Example 110, (7aS,11aS)-11a-Benzyl-N-(2-methylpyridin-3-yl)-7,9-dioxo-5,7,7a,8,9,10,11,11a-octahydrodibenzo[c,e]oxepine-3-carboxamide], the IC50 was more than 10000 nM.

`Oc1ccc2c(c1)CCC[C@H]1C[C@@](O)(c3ccccc3)[C@H](O)C[C@@]21Cc1ccccc1` (racemic) [Example 42, (2R,3R,4aS,11bR)-11b-Benzyl-3-phenyl-2,3,4,4a,5,6,7,11b-octahydro-1H-dibenzo[a,c]cycloheptene-2,3,9-triol compound with (2S,3S,4aR,11bS)-11b-benzyl-3-phenyl-2,3,4,4a,5,6,7,11b-octahydro-1H-dibenzo[a,c]cycloheptene-2,3,9-triol] registered an IC50 of 100 to 1000 nM.

`CCC[C@@]1(O)CC[C@@]2(CC)c3ccc(C(=O)Nc4cccnc4C)cc3C(=O)CC[C@H]2C1` (single isomer, unassigned) [Example 61] registered a 50% inhibitory concentration (IC50) of 100 to 1000 nM.

In turn, `CC[C@@]12CC[C@](O)(CC(C)C)C[C@@H]1CCCc1cc(C(=O)Nc3cccnc3C)ccc12` [Example 49] yielded an IC50 of less than 100 nM.

Turning to `CC[C@@]1(O)CC[C@@]2(Cc3ccccc3)c3ccc(C(=O)Nc4ccccc4N)cc3CCC[C@H]2C1` [Example 126, (7aS,9R,11aS)-11a-Benzyl-9-ethyl-9-hydroxy-6,7,7a,8,9,10,11,11a-octahydro-5H-dibenzo[a,c]cycloheptene-3-carboxylic acid (2-amino-phenyl)-amide], the IC50 was less than 100 nM.

The compound `CC[C@@]1(O)CC[C@@]2(Cc3ccccc3)c3ccc(C(=O)Nc4ccnn4C)cc3CCC[C@H]2C1` [Example 75] displayed an IC50 of less than 100 nM.

In turn, `Cc1ncccc1NC(=O)c1ccc2c(c1)CCC[C@H]1C[C@@](O)(COC(C)C)CC[C@@]21Cc1ccccc1` (racemic) [Example 97] returned an IC50 of less than 100 nM.

In turn, `CCC[C@@]12CC[C@](O)(CC)C[C@@H]1CCCc1cc(C(=O)Nc3cccnc3C)ccc12.CCC[C@]12CC[C@@](O)(CC)C[C@H]1CCCc1cc(C(=O)Nc3cccnc3C)ccc12` [Example 26, (7aR,9S,11aS)-9-Ethyl-9-hydroxy-11a-propyl-6,7,7a,8,9,10,11,11a-octahydro-5H-dibenzo[a,c]cycloheptene-3-carboxylic acid (2-methyl-pyridin-3-yl)-amide; compound with (7aS,9R,11aR)-9-ethyl-9-hydroxy-11a-propyl-6,7,7a,8,9,10,11,11a-octahydro-5H-dibenzo[a,c]cycloheptene-3-carboxylic acid (2-methyl-pyridin-3-yl)-amide] had an IC50 of less than 100 nM.

With `CCC[C@@]12CC[C@](O)(Cc3ccccc3)C[C@@H]1CCCc1cc(C(=O)Nc3cccnc3C)ccc12.CCC[C@]12CC[C@@](O)(Cc3ccccc3)C[C@H]1CCCc1cc(C(=O)Nc3cccnc3C)ccc12` [Example 34, (7aS,9R,11aR)-9-Benzyl-9-hydroxy-11a-propyl-6,7,7a,8,9,10,11,11a-octahydro-5H-dibenzo[a,c]cycloheptene-3-carboxylic acid (2-methyl-pyridin-3-yl)-amide; compound with (7aR,9S,11aS)-9-benzyl-9-hydroxy-11a-propyl-6,7,7a,8,9,10,11,11a-octahydro-5H-dibenzo[a,c]cycloheptene-3-carboxylic acid (2-methyl-pyridin-3-yl)-amide], the IC50 is less than 100 nM.

With `Cc1ncccc1NC(=O)c1ccc2c(c1)CCC[C@H]1C[C@@H](O)CC[C@@]21Cc1ccccc1` (racemic) [Example 16, (7aS,9S,11aS)-11a-Benzyl-9-hydroxy-6,7,7a,8,9,10,11,11a-octahydro-5H-dibenzo[a,c]cycloheptene-3-carboxylic acid (2-methyl-pyridin-3-yl)-amide; compound with (7aR,9R,11aR)-11a-benzyl-9-hydroxy-6,7,7a,8,9,10,11,11a-octahydro-5H-dibenzo[a,c]cycloheptene-3-carboxylic acid (2-methyl-pyridin-3-yl)-amide], the IC50 lay within 100 to 1000 nM.

These data come from patent US20120238549A1, “Nuclear Hormone Receptor Modulators” (ABBOTT LABORATORIES, priority 2011, published 2012).
